The values below come from ChEMBL document CHEMBL3822440, “Semi-synthesis and antiproliferative evaluation of PEGylated pentacyclic triterpenes” (Eur J Med Chem, 2016).

For test [1], the system named is HepG2. Put plainly: Potency index, ratio of oleanolic acid IC50 to compound IC50 for human HepG2 cells. It is filed as functional.
The test system of test [2] is HT-29. Put plainly: Cytotoxicity against human HT-29 cells assessed as growth inhibition after 72 hrs by MTT assay. It is filed as functional, cell-based. The settings on record: HT-29, 72 h.
A short description of test [3]: Cytotoxicity against mouse B16F10 cells assessed as growth inhibition after 72 hrs by MTT assay. The settings on record: B16-F10, 72 h. Format: functional, cell-based. On the technique in general: Formazan colour is commonly taken as a measure of viable cells.
The test system of test [4] is B16-F10. As to the kind of experiment: Potency index, ratio of oleanolic acid IC50 to compound IC50 for mouse B16F10 cells. Format: functional.
Test [5] deals with HepG2. Put plainly: Cytotoxicity against human HepG2 cells assessed as growth inhibition after 72 hrs by MTT assay. Format: functional, cell-based. The settings on record: HepG2, 72 h.
Test [6] relates to HT-29. As to the kind of experiment: Potency index, ratio of oleanolic acid IC50 to compound IC50 for human HT-29 cells. It is filed as functional.
The test system of test [7] is HT-29. Put plainly: Potency index, ratio of maslinic acid IC50 to compound IC50 for human HT-29 cells. Format: functional.
Test [8] concerns HepG2. Put plainly: Potency index, ratio of maslinic acid IC50 to compound IC50 for human HepG2 cells. It is filed as functional.
The subject of test [9] is B16-F10. Put plainly: Potency index, ratio of maslinic acid IC50 to compound IC50 for mouse B16F10 cells. It is filed as functional.

As a reminder, the IC50 is the concentration that inhibits the measured activity by half. As to `CC(=O)O[C@H]1CC[C@]2(C)[C@H]3CC=C4[C@@H]5CC(C)(C)CC[C@]5(C(=O)NCCCOCCOCCOCCCN)CC[C@@]4(C)[C@]3(C)CC[C@H]2C1(C)C`, the figures for the “Ratio IC50” value in test [1], in [4] and in [6] were 3.1, 0.5 and 3.1, respectively. In addition, the IC50 in test [2] worked out at 138 µM; in test [3], 201 µM; in test [5] it was 68.7 µM.

With `CC(=O)O[C@@H]1C[C@]2(C)[C@H]3CC=C4[C@@H]5CC(C)(C)CC[C@]5(C(=O)NCCCOCCOCCOCCCN)CC[C@@]4(C)[C@]3(C)CC[C@H]2C(C)(C)[C@H]1OC(C)=O`, the IC50 in test [2] was 130 µM; in [3], 104 µM; in test [5], 176 µM. Moreover, the “Ratio IC50” value in test [7] is on record as 0.2; in [8], 0.6; in test [9], 0.3.

For `COCCOCCOCC(=O)O[C@H]1CC[C@]2(C)[C@H]3CC=C4[C@@H]5CC(C)(C)CC[C@]5(C(=O)OCc5ccccc5)CC[C@@]4(C)[C@]3(C)CC[C@H]2C1(C)C`, the “Ratio IC50” value in test [1] stood at 2.5; in [4], 0.6; in test [6], 7. The IC50 was 61.6 µM in test [2], 175 µM in test [3] and 84.1 µM in test [5].

As for `CC1(C)CC[C@]2(C(=O)NCCCOCCOCCOCCCNC(=O)[C@]34CCC(C)(C)C[C@H]3C3=CC[C@@H]5[C@@]6(C)CC[C@H](O)C(C)(C)[C@@H]6CC[C@@]5(C)[C@]3(C)CC4)CC[C@]3(C)C(=CC[C@@H]4[C@@]5(C)CC[C@H](O)C(C)(C)[C@@H]5CC[C@]43C)[C@@H]2C1`, the “Ratio IC50” value in test [1] turned out to be 3.2; in test [4], 0.9; in test [6], 5. Moreover, the IC50 came to 85.6 µM in test [2], 123 µM in [3] and 66.7 µM in [5].

For the molecule `CC1(C)CC[C@]2(C(=O)OCc3ccccc3)CC[C@]3(C)C(=CC[C@@H]4[C@@]5(C)CC[C@H](O)C(C)(C)[C@@H]5CC[C@]43C)[C@@H]2C1`, the entries for the “Ratio IC50” value in [1], in [4] and in test [6] were 5.5, 2 and 6.4, respectively. For the same molecule, the IC50 amounted to 67.1 µM in test [2] and 38.7 µM in test [5].

As for `CC1(C)CC[C@]2(C(=O)O)CC[C@]3(C)C(=CC[C@@H]4[C@@]5(C)CC[C@H](O)C(C)(C)[C@@H]5CC[C@]43C)[C@@H]2C1` [OLEANOLIC_ACID], the IC50 in test [2] was determined as 430 µM; in [5], 212 µM.

For `CC1(C)CC[C@]2(C(=O)NCCCOCCOCCOCCCNC(=O)[C@]34CCC(C)(C)C[C@H]3C3=CC[C@@H]5[C@@]6(C)C[C@@H](O)[C@H](O)C(C)(C)[C@@H]6CC[C@@]5(C)[C@]3(C)CC4)CC[C@]3(C)C(=CC[C@@H]4[C@@]5(C)C[C@@H](O)[C@H](O)C(C)(C)[C@@H]5CC[C@]43C)[C@@H]2C1`, the results for the IC50 in [2], in test [3] and in test [5] were 82.8 µM, 118 µM and 96.7 µM, respectively. The “Ratio IC50” value is reported as 0.4 in test [7], 1 in test [8] and 0.3 in test [9].

With `CC1(C)CC[C@]2(C(=O)OCc3ccccc3)CC[C@]3(C)C(=CC[C@@H]4[C@@]5(C)C[C@@H](O)[C@H](O)C(C)(C)[C@@H]5CC[C@]43C)[C@@H]2C1` [BENZYL MASLINATE], the results for the IC50 in [2], in test [3] and in test [5] were 15.3 µM, 36.2 µM and 17 µM, respectively. The “Ratio IC50” value in test [7] is on record as 2.1; in test [8], 5.8; in test [9], 1.

Turning to `CC(=O)O[C@H]1CC[C@]2(C)[C@H]3CC=C4[C@@H]5CC(C)(C)CC[C@]5(C(=O)O)CC[C@@]4(C)[C@]3(C)CC[C@H]2C1(C)C` [ACETYL OLEANOLIC ACID], the “Ratio IC50” value in test [1] came to 2; in test [4], 1.6; in [6], 2.9. In addition, the IC50 in test [2] turned out to be 148 µM; in test [5], 104 µM.

`CC(=O)OC1CC[C@]2(C)[C@H]3CC=C4[C@@H]5CC(C)(C)CC[C@]5(C(=O)NCCCOCCOCCOCCCNC(=O)[C@]56CCC(C)(C)C[C@H]5C5=CC[C@@H]7[C@@]8(C)CC[C@H](OC(C)=O)C(C)(C)[C@@H]8CC[C@@]7(C)[C@]5(C)CC6)CC[C@@]4(C)[C@]3(C)CC[C@H]2C1(C)C` (single isomer, unassigned): the “Ratio IC50” value is 8.7 in [1], 0.9 in test [4] and 5.2 in test [6]. Also, the IC50 in [2] was 83.2 µM; in test [3] it was 119 µM; in [5] it was 24.4 µM.

In the case of `CC(=O)O[C@@H]1C[C@]2(C)[C@H]3CC=C4[C@@H]5CC(C)(C)CC[C@]5(C(=O)NCCCOCCOCCOCCCNC(=O)[C@]56CCC(C)(C)C[C@H]5C5=CC[C@@H]7[C@@]8(C)C[C@@H](OC(C)=O)[C@H](OC(C)=O)C(C)(C)[C@@H]8CC[C@@]7(C)[C@]5(C)CC6)CC[C@@]4(C)[C@]3(C)CC[C@H]2C(C)(C)[C@H]1OC(C)=O`, the IC50 in [2] amounted to 64.3 µM; in test [3], 107 µM; in test [5] it was 113 µM. The “Ratio IC50” value in test [7] is 0.5; in test [8] it was 0.9; in test [9] it was 0.3.

For `CC(=O)O[C@@H]1C[C@]2(C)[C@H]3CC=C4[C@@H]5CC(C)(C)CC[C@]5(C(=O)O)CC[C@@]4(C)[C@]3(C)CC[C@H]2C(C)(C)[C@H]1OC(C)=O`, the IC50 in [2] worked out at 69.1 µM; in [5] it was 50.2 µM. Further, the figures for the “Ratio IC50” value in test [7], in test [8] and in [9] were 0.5, 2 and 0.8, respectively.

Regarding `CC1(C)CC[C@]2(C(=O)O)CC[C@]3(C)C(=CC[C@@H]4[C@@]5(C)C[C@@H](O)[C@H](O)C(C)(C)[C@@H]5CC[C@]43C)[C@@H]2C1` [MASLINIC ACID], the results for the IC50 in test [2] and in [5] were 32.2 µM and 99.2 µM, respectively.
